According to PubChem BioAssay (NCI):
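Results reflect a 48-hour exposure of cells in 96-well plates to compound at five concentrations. Abbreviation: GI50, concentration required for 50% inhibition of growth. At the TGI there is no net growth.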

What was measured:
Test in all cases: NCI tumour cell line growth inhibition, 48 h
SNB-75 CNS = tested on: SNB-75 CNS
OVCAR-4 ovarian = tested on: OVCAR-4 ovarian
TK-10 renal = tested on: TK-10 renal
KM12 colon = tested on: KM12 colon
SK-MEL-2 melanoma = tested on: SK-MEL-2 melanoma
SF-539 CNS = tested on: SF-539 CNS
LOX IMVI melanoma = tested on: LOX IMVI melanoma
T-47D breast = tested on: T-47D breast

Row | Compound | GI50 (SNB-75 CNS) [µM] | TGI (SNB-75 CNS) [µM] | GI50 (OVCAR-4 ovarian) [µM] | TGI (OVCAR-4 ovarian) [µM] | GI50 (TK-10 renal) [µM] | TGI (TK-10 renal) [µM] | GI50 (KM12 colon) [µM] | TGI (KM12 colon) [µM] | GI50 (SK-MEL-2 melanoma) [µM] | TGI (SK-MEL-2 melanoma) [µM] | GI50 (SF-539 CNS) [µM] | TGI (SF-539 CNS) [µM] | GI50 (LOX IMVI melanoma) [µM] | TGI (LOX IMVI melanoma) [µM] | GI50 (T-47D breast) [µM] | TGI (T-47D breast) [µM]
1 | O=c1cc(-c2ccccc2)[nH]c2c1CCCC2 | 1.8 | > 100 | 9.08 | > 100 | 70.6 | > 100 | 0.723 | > 100 | 4.19 | > 100 | 2.92 | > 100 | 5.88 | > 100 | – | –
2 | CC1CCCC(C#N)(NOC2=NCCN2)C1 (stereo not given) | 40.3 | > 100 | 48.3 | > 100 | 12.9 | 46.2 | 48.4 | > 100 | 57.3 | > 100 | 15.5 | 40.4 | 12.7 | 25.4 | – | –
3 | CCOC(=O)c1c(-c2ccccc2)[n+](=O)c2cc(F)c(F)cc2n1[O-] | 1.75 | 3.64 | 0.624 | 2.16 | 16.6 | 32 | 2.01 | 9.91 | 3.47 | > 100 | 1.95 | 3.68 | 0.157 | 0.298 | – | –
4 | Cc1nc(NS(=O)(=O)c2ccc(NCN3C(=O)c4ccccc4C3=O)cc2)oc1C | > 100 | > 100 | > 100 | > 100 | > 100 | > 100 | > 100 | > 100 | > 100 | > 100 | > 100 | > 100 | > 100 | > 100 | – | –
5 | COc1cc(C2c3cc4c(cc3OC(O)C2C)OCO4)cc(OC)c1OC (stereo not given) | – | 4.93 | – | > 79.4 | – | > 100 | – | 27.2 | – | 13.3 | – | 0.92 | – | > 100 | – | –
6 | CC(C)(C)c1ccc(C2CC(=O)C3=C(C2)Nc2ccccc2N(C(=O)c2ccccc2Cl)C3c2ccc(F)cc2)cc1 (stereo not given) | > 100 | > 100 | > 100 | > 100 | – | – | > 100 | > 100 | – | – | > 100 | > 100 | > 100 | > 100 | 5.57 | > 100
7 | O=C1OCC2=C1C(c1cccc(C(F)(F)F)c1)c1cc3c(cc1N2CCO)OCCO3 (stereo not given) | – | – | 6.41 | > 33.3 | > 33.3 | > 33.3 | 1.08 | > 33.3 | 1.99 | > 33.3 | 0.849 | 3.11 | 1.66 | > 33.3 | – | –
8 | COc1ccc(Nc2ncnc3ccc(-c4cncc(NS(C)(=O)=O)c4)cc23)cc1Cl | 0.352 | 6.37 | 4.22 | 83.1 | – | – | 3.15 | 11.7 | 1.02 | 2.67 | 1.84 | 7.72 | 1.5 | 4.28 | 0.177 | 1.61
9 | CN(C)CCN1C(=O)c2cccc3c(/C=C/CN4C(=O)c5cccc6cccc(c56)C4=O)ccc(c23)C1=O | – | – | > 100 | > 100 | 34.7 | 82.8 | > 100 | > 100 | > 100 | > 100 | 6.33 | 19.5 | 14.5 | 27.7 | > 100 | > 100
10 | CC(C)[P+](c1ccccc1)(c1ccccc1)c1ccccc1 | 4.81 | 66 | 3.7 | 94.6 | – | – | 2.57 | > 100 | 3.77 | 21.9 | 15.6 | > 100 | 9.94 | > 100 | – | –
11 | CCc1ccc2oc(=O)ccc2c1 | – | > 100 | – | > 100 | – | – | – | > 100 | – | > 100 | – | > 100 | – | > 100 | – | –
12 | C1CSC[C@H]2COC[C@@H](CSCCS1)S2 | – | > 100 | – | > 100 | – | > 100 | – | > 100 | – | – | – | > 100 | – | > 100 | – | > 100
13 | C=C(C(=O)OC)[C@@H]1CC2OC1C(=O)C(C)CCC/C(C)=C/CC[C@@]2(C)O (stereo not given in full) | – | – | 37.9 | > 100 | 20.8 | 71.1 | 23.8 | > 100 | 37.8 | > 100 | 18.4 | 36.4 | 20.2 | 57.2 | 59.8 | > 100
14 | COc1ccc2nc(C)cc(Sc3nc4ccccc4s3)c2c1 | 0.885 | 5.12 | 0.993 | > 21.2 | 1.4 | 5.47 | 1.9 | 5.07 | – | – | 1.73 | 4.04 | 1.19 | 3.37 | 0.881 | 11
15 | COc1cc2c(cc1OC)C(C(CBr)CBr)N(C1CCCC1)CC2 (stereo not given) | – | > 100 | – | > 100 | – | > 100 | – | > 100 | – | > 100 | – | > 100 | – | > 100 | – | –
